Assay results reported in PubChem BioAssay AID192 (DTP/NCI, 2004).
Values joined by “and” are separate entries in the source; they are usually repeats but may differ in a detail not shown here. Equal entries are not always repeated. Inconclusive results and toxic doses are left out. How the source made its calls: active means survival T/C of 150% or more; inactive means T/C below 125% in these data.

Test system: BDF1 mice, B16 melanoma ip, median survival T/C
Test: NCI In Vivo Anticancer Drug Screen. Data for tumor model B16 Melanoma (intraperitoneal) in B6D2F1 (BDF1) mice
Conditions: endpoint: median survival time, higher = longer survival
In short: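 In this screen, activity was judged from survival or tumor size in treated versus vehicle-treated tumor-bearing mice, reported as T/C.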

[1] = dose: 100.0 mg/kg/injection, schedule: Q01DX009 (ip), vehicle: Klucel (hydroxypropylcellulose) (HPC)
[2] = dose: 100.0 mg/kg/injection, schedule: Q01DX009 (ip), vehicle: saline with Tween-80
[3] = dose: 200.0 mg/kg/injection, schedule: Q01DX009 (ip), vehicle: saline with Tween-80
[4] = dose: 12.5 mg/kg/injection, schedule: Q04DX003 (ip), vehicle: Klucel (hydroxypropylcellulose) (HPC)
[5] = dose: 25.0 mg/kg/injection, schedule: Q04DX003 (ip), vehicle: Klucel (hydroxypropylcellulose) (HPC)
[6] = dose: 50.0 mg/kg/injection, schedule: Q04DX003 (ip), vehicle: Klucel (hydroxypropylcellulose) (HPC)
[7] = dose: 100.0 mg/kg/injection, schedule: Q04DX003 (ip), vehicle: saline
[8] = dose: 4.0 mg/kg/injection, schedule: Q01DX009 (ip), vehicle: saline with Tween-80
[9] = dose: 8.0 mg/kg/injection, schedule: Q01DX009 (ip), vehicle: saline with Tween-80
[10] = dose: 16.0 mg/kg/injection, schedule: Q01DX009 (ip), vehicle: saline with Tween-80

Measured: T/C

COc1cc2c[n+](C)c3c4cc5c(cc4ccc3c2cc1OC)OCO5
inactive: dose: 5.0 mg/kg/injection, schedule: Q01DX009 (ip), vehicle: water 122 % of control | dose: 12.5 mg/kg/injection, schedule: Q01DX009 (ip), vehicle: saline with Tween-80 113 % of control | dose: 25.0 mg/kg/injection, schedule: Q01DX009 (ip), vehicle: saline with Tween-80 115 % of control | dose: 40.0 mg/kg/injection, schedule: Q01DX009 (ip), vehicle: water 120 % of control | dose: 50.0 mg/kg/injection, schedule: Q01DX009 (ip), vehicle: saline with Tween-80 97 % of control

O=[N+]([O-])/C=C/c1ccc2ccccc2c1
inactive: dose: 50.0 mg/kg/injection, schedule: Q01DX009 (ip), vehicle: Klucel (hydroxypropylcellulose) (HPC) 95 % of control | [1] 107 % of control

CCCCCCCCCCCC1=NCCN1
inactive: dose: 3.0 mg/kg/injection, schedule: Q01DX009 (ip), vehicle: saline with Tween-80 94 % of control | dose: 6.0 mg/kg/injection, schedule: Q01DX009 (ip), vehicle: saline with Tween-80 97 % of control | dose: 12.0 mg/kg/injection, schedule: Q01DX009 (ip), vehicle: saline with Tween-80 88 % of control

Cc1c(Cl)cccc1NC(=O)c1ccc([N+](=O)[O-])cc1
inactive: [2] 105 % of control | [3] 100 % of control

COc1cccc(CNc2ccc(C)cc2C)c1OC
inactive: [1] 96 % of control | dose: 200.0 mg/kg/injection, schedule: Q01DX009 (ip), vehicle: Klucel (hydroxypropylcellulose) (HPC) 103 % of control | dose: 400.0 mg/kg/injection, schedule: Q01DX009 (ip), vehicle: Klucel (hydroxypropylcellulose) (HPC) 96 % of control

CCCCC(C(=O)OCC)C(CCC1CCCCC1)(C(=O)OCC)C(=O)OCC (centres undefined)
inactive: [4] 90 % of control | [5] 99 % of control | [6] 87 % of control and 89 % of control

CCOC(=O)C(C#N)N=O (centres undefined)
inactive: dose: 50.0 mg/kg/injection, schedule: Q01DX009 (ip), vehicle: saline 111 % of control | dose: 50.0 mg/kg/injection, schedule: Q04DX003 (ip), vehicle: saline 106 % of control | [7] 113 % of control

CCCCCCCCCCCCCCC/C([O-])=N/[N+](C)(C)CC(C)O (centres undefined)
inactive: dose: 25.0 mg/kg/injection, schedule: Q01DX001 (ip), vehicle: saline 97 % of control | dose: 50.0 mg/kg/injection, schedule: Q01DX001 (ip), vehicle: saline 96 % of control | dose: 100.0 mg/kg/injection, schedule: Q01DX001 (ip), vehicle: saline 95 % of control | dose: 200.0 mg/kg/injection, schedule: Q01DX001 (ip), vehicle: saline 95 % of control

CC(=O)OCC(OC(C)=O)C(OC(C)=O)C(C#N)OC(C)=O (centres undefined)
inactive: [4] 100 % of control | [5] 95 % of control | [6] 97 % of control

CC(O)C1(O)C(O)CC(OC2c3cc4c(c(O)c3[C@@H]3C[C@@]2(C)OC32C=c3cc[nH]c3=N2)C(=O)c2cccc(O)c2C4=O)OC1C (some centres undefined)
inactive: dose: 0.5 mg/kg/injection, schedule: Q01DX009 (ip), vehicle: saline with Tween-80 97 % of control | dose: 1.0 mg/kg/injection, schedule: Q01DX009 (ip), vehicle: saline with Tween-80 112 % of control | dose: 2.0 mg/kg/injection, schedule: Q01DX009 (ip), vehicle: saline with Tween-80 109 % of control | [8] 117 % of control | [9] 115 % of control | [10] 124 % of control

CN1C2CCC1CNC2
inactive: [7] 105 % of control | dose: 200.0 mg/kg/injection, schedule: Q04DX003 (ip), vehicle: saline 105 % of control | dose: 400.0 mg/kg/injection, schedule: Q04DX003 (ip), vehicle: saline 100 % of control

CC(CN1CC(=O)NC(=O)C1)N1CC(=O)NC(=O)C1 (centres undefined)
inactive: dose: 3.75 mg/kg/injection, schedule: Q01DX009 (ip), vehicle: alkali diluted with saline 99 % of control | dose: 3.75 mg/kg/injection, schedule: Q01DX009 (ip), vehicle: saline sonified 97 % of control | dose: 3.75 mg/kg/injection, schedule: Q01DX009 (ip), vehicle: saline 102 % of control | dose: 3.75 mg/kg/injection, schedule: Q04DX004 (ip), vehicle: saline 100 % of control | [8] 114 % of control | dose: 4.0 mg/kg/injection, schedule: Q01DX009 (ip), vehicle: saline 115 % of control | dose: 7.5 mg/kg/injection, schedule: Q01DX009 (ip), vehicle: alkali diluted with saline 105 % of control | dose: 7.5 mg/kg/injection, schedule: Q01DX009 (ip), vehicle: saline sonified 100 % of control | dose: 7.5 mg/kg/injection, schedule: Q01DX009 (ip), vehicle: saline 104 % of control | dose: 7.5 mg/kg/injection, schedule: Q04DX004 (ip), vehicle: saline 90 % of control | [9] 105 % of control and 112 % of control and 118 % of control | dose: 8.0 mg/kg/injection, schedule: Q01DX009 (ip), vehicle: saline 123 % of control | dose: 15.0 mg/kg/injection, schedule: Q01DX009 (ip), vehicle: alkali diluted with saline 110 % of control | dose: 15.0 mg/kg/injection, schedule: Q01DX009 (ip), vehicle: saline sonified 109 % of control | dose: 15.0 mg/kg/injection, schedule: Q01DX009 (ip), vehicle: saline with Tween-80 110 % of control | dose: 15.0 mg/kg/injection, schedule: Q01DX009 (ip), vehicle: saline 114 % of control | dose: 15.0 mg/kg/injection, schedule: Q04DX004 (ip), vehicle: saline 88 % of control | [10] 121 % of control and 123 % of control | [5] 94 % of control and 97 % of control | dose: 30.0 mg/kg/injection, schedule: Q01DX009 (ip), vehicle: alkali diluted with saline 119 % of control | dose: 30.0 mg/kg/injection, schedule: Q01DX009 (ip), vehicle: saline sonified 119 % of control | dose: 30.0 mg/kg/injection, schedule: Q01DX009 (ip), vehicle: saline with Tween-80 113 % of control | dose: 30.0 mg/kg/injection, schedule: Q01DX009 (ip), vehicle: saline 121 % of control | dose: 30.0 mg/kg/injection, schedule: Q01DX009 (oral), vehicle: saline 95 % of control | dose: 30.0 mg/kg/injection, schedule: Q04DX004 (ip), vehicle: saline 90 % of control | dose: 32.0 mg/kg/injection, schedule: Q01DX009 (ip), vehicle: Klucel (hydroxypropylcellulose) (HPC) 115 % of control | dose: 32.0 mg/kg/injection, schedule: Q01DX009 (ip), vehicle: saline with Tween-80 122 % of control | dose: 32.0 mg/kg/injection, schedule: Q04DX003 (ip), vehicle: saline with Tween-80 109 % of control and 110 % of control | [6] 108 % of control and 110 % of control | dose: 60.0 mg/kg/injection, schedule: Q01DX009 (ip), vehicle: saline with Tween-80 118 % of control | dose: 60.0 mg/kg/injection, schedule: Q04DX004 (ip), vehicle: saline 111 % of control | dose: 64.0 mg/kg/injection, schedule: Q01DX009 (ip), vehicle: Klucel (hydroxypropylcellulose) (HPC) 120 % of control | dose: 64.0 mg/kg/injection, schedule: Q04DX003 (ip), vehicle: saline with Tween-80 108 % of control and 115 % of control | dose: 64.0 mg/kg/injection, schedule: Q04DX003 (ip), vehicle: saline 115 % of control | dose: 100.0 mg/kg/injection, schedule: Q04DX003 (ip), vehicle: Klucel (hydroxypropylcellulose) (HPC) 108 % of control and 112 % of control | dose: 120.0 mg/kg/injection, schedule: Q01DX009 (ip), vehicle: saline with Tween-80 116 % of control | dose: 128.0 mg/kg/injection, schedule: Q01DX009 (ip), vehicle: Klucel (hydroxypropylcellulose) (HPC) 120 % of control | dose: 128.0 mg/kg/injection, schedule: Q04DX003 (ip), vehicle: saline with Tween-80 121 % of control | dose: 128.0 mg/kg/injection, schedule: Q04DX003 (ip), vehicle: saline 121 % of control | dose: 200.0 mg/kg/injection, schedule: Q04DX003 (ip), vehicle: Klucel (hydroxypropylcellulose) (HPC) 112 % of control | dose: 400.0 mg/kg/injection, schedule: Q04DX003 (ip), vehicle: Klucel (hydroxypropylcellulose) (HPC) 108 % of control | dose: 800.0 mg/kg/injection, schedule: Q04DX003 (ip), vehicle: Klucel (hydroxypropylcellulose) (HPC) 112 % of control

Cc1cc2ncn(C(=O)Nc3ccccc3)c2cc1C
inactive: [2] 100 % of control | [3] 95 % of control | dose: 400.0 mg/kg/injection, schedule: Q01DX009 (ip), vehicle: saline with Tween-80 88 % of control

Cc1ccc(C(=O)CCC(=O)O)c(C)c1
inactive: [2] 90 % of control | [3] 93 % of control
